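Protocol summary: plate cells (96-well), add compound at 5 concentrations, incubate 48 h, interpolate endpoints linearly. GI50: concentration for 50% inhibition of growth. At the TGI there is no net growth.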
Tests used:
Assay in all cases: growth of human tumour cells (NCI), 48 h
HCC-2998 colon = test system: HCC-2998 colon
SNB-19 CNS = test system: SNB-19 CNS
A549 NSCLC = test system: A549 NSCLC
NCI-H226 lung = test system: NCI-H226 lung
SF-539 CNS = test system: SF-539 CNS
SW-620 colon = test system: SW-620 colon
TK-10 renal = test system: TK-10 renal
K-562 leukemia = test system: K-562 leukemia
786-0 renal = test system: 786-0 renal
A498 renal = test system: A498 renal
MDA-MB-435 = test system: MDA-MB-435
ACHN renal = test system: ACHN renal
UACC-62 melanoma = test system: UACC-62 melanoma
PC-3 prostate = test system: PC-3 prostate
CAKI-1 renal = test system: CAKI-1 renal
SK-MEL-5 melanoma = test system: SK-MEL-5 melanoma
BT-549 breast = test system: BT-549 breast
MDA-MB-231 breast = test system: MDA-MB-231 breast
M14 melanoma = test system: M14 melanoma
MOLT-4 leukemia = test system: MOLT-4 leukemia
CCRF-CEM leukemia = test system: CCRF-CEM leukemia
RXF 393 renal = test system: RXF 393 renal
UACC-257 melanoma = test system: UACC-257 melanoma
LOX IMVI melanoma = test system: LOX IMVI melanoma
SR leukemia = test system: SR leukemia
SK-MEL-28 melanoma = test system: SK-MEL-28 melanoma
SK-OV-3 ovarian = test system: SK-OV-3 ovarian
RPMI-8226 leukemia = test system: RPMI-8226 leukemia
NCI-H522 lung = test system: NCI-H522 lung
NCI/ADR-RES ovarian = test system: NCI/ADR-RES ovarian
SN12C renal = test system: SN12C renal
KM12 colon = test system: KM12 colon
UO-31 renal = test system: UO-31 renal
NCI-H23 lung = test system: NCI-H23 lung
OVCAR-8 ovarian = test system: OVCAR-8 ovarian
OVCAR-3 ovarian = test system: OVCAR-3 ovarian
IGROV1 ovarian = test system: IGROV1 ovarian
COLO 205 colon = test system: COLO 205 colon
SF-268 CNS = test system: SF-268 CNS
EKVX NSCLC = test system: EKVX NSCLC
HS 578T breast = test system: HS 578T breast
U251 CNS = test system: U251 CNS
HT29 colon = test system: HT29 colon
MCF7 breast = test system: MCF7 breast
HCT-116 colon = test system: HCT-116 colon
HL-60(TB) leukemia = test system: HL-60(TB) leukemia
DU-145 prostate = test system: DU-145 prostate
T-47D breast = test system: T-47D breast
NCI-H460 lung = test system: NCI-H460 lung
OVCAR-5 ovarian = test system: OVCAR-5 ovarian
HOP-92 NSCLC = test system: HOP-92 NSCLC
HCT-15 colon = test system: HCT-15 colon
SF-295 CNS = test system: SF-295 CNS
HOP-62 NSCLC = test system: HOP-62 NSCLC

Cc1ccc(/C=C(\C#N)c2cc3ccccc3n2C)cc1
GI50 (HCC-2998 colon): 484 nM | TGI (HCC-2998 colon): > 100000 nM | GI50 (SNB-19 CNS): 414 nM | TGI (SNB-19 CNS): > 100000 nM | GI50 (A549 NSCLC): 463 nM | TGI (A549 NSCLC): > 100000 nM | GI50 (NCI-H226 lung): 1450 nM | TGI (NCI-H226 lung): > 100000 nM | GI50 (SF-539 CNS): 294 nM | TGI (SF-539 CNS): 1020 nM | GI50 (SW-620 colon): 361 nM | TGI (SW-620 colon): > 100000 nM | GI50 (TK-10 renal): > 100000 nM | TGI (TK-10 renal): > 100000 nM | GI50 (K-562 leukemia): 153 nM | TGI (K-562 leukemia): > 100000 nM | GI50 (786-0 renal): 709 nM | TGI (786-0 renal): > 100000 nM | GI50 (A498 renal): 217 nM | TGI (A498 renal): 808 nM | GI50 (MDA-MB-435): 50.2 nM | TGI (MDA-MB-435): 334 nM | GI50 (ACHN renal): 783 nM | TGI (ACHN renal): > 100000 nM | GI50 (UACC-62 melanoma): 278 nM | TGI (UACC-62 melanoma): > 100000 nM | GI50 (PC-3 prostate): 403 nM | TGI (PC-3 prostate): > 100000 nM | GI50 (CAKI-1 renal): 406 nM | TGI (CAKI-1 renal): > 100000 nM | GI50 (SK-MEL-5 melanoma): 647 nM | TGI (SK-MEL-5 melanoma): > 100000 nM | GI50 (BT-549 breast): 742 nM | TGI (BT-549 breast): > 26700 nM | GI50 (MDA-MB-231 breast): 671 nM | TGI (MDA-MB-231 breast): > 100000 nM | GI50 (M14 melanoma): 268 nM | TGI (M14 melanoma): > 100000 nM | GI50 (MOLT-4 leukemia): 467 nM | TGI (MOLT-4 leukemia): > 100000 nM | GI50 (CCRF-CEM leukemia): 355 nM | TGI (CCRF-CEM leukemia): > 100000 nM | GI50 (RXF 393 renal): 172 nM | TGI (RXF 393 renal): 565 nM | GI50 (UACC-257 melanoma): > 100000 nM | TGI (UACC-257 melanoma): > 100000 nM | GI50 (LOX IMVI melanoma): 542 nM | TGI (LOX IMVI melanoma): > 100000 nM | GI50 (SR leukemia): 264 nM | TGI (SR leukemia): > 100000 nM | GI50 (SK-MEL-28 melanoma): > 100000 nM | TGI (SK-MEL-28 melanoma): > 100000 nM | GI50 (SK-OV-3 ovarian): > 100000 nM | TGI (SK-OV-3 ovarian): > 100000 nM | GI50 (RPMI-8226 leukemia): 380 nM | TGI (RPMI-8226 leukemia): > 100000 nM | GI50 (NCI-H522 lung): 269 nM | TGI (NCI-H522 lung): 16200 nM | GI50 (NCI/ADR-RES ovarian): 361 nM | TGI (NCI/ADR-RES ovarian): > 100000 nM | GI50 (SN12C renal): 614 nM | TGI (SN12C renal): > 100000 nM | GI50 (KM12 colon): 428 nM | TGI (KM12 colon): > 100000 nM | GI50 (UO-31 renal): 853 nM | TGI (UO-31 renal): > 100000 nM | GI50 (NCI-H23 lung): 541 nM | TGI (NCI-H23 lung): > 100000 nM | GI50 (OVCAR-8 ovarian): 565 nM | TGI (OVCAR-8 ovarian): > 100000 nM | GI50 (OVCAR-3 ovarian): 361 nM | GI50 (IGROV1 ovarian): 544 nM | TGI (IGROV1 ovarian): > 100000 nM | GI50 (COLO 205 colon): 410 nM | TGI (COLO 205 colon): > 43500 nM | GI50 (SF-268 CNS): 8270 nM | TGI (SF-268 CNS): > 100000 nM | GI50 (EKVX NSCLC): 580 nM | TGI (EKVX NSCLC): > 100000 nM | GI50 (HS 578T breast): 448 nM | TGI (HS 578T breast): > 100000 nM | GI50 (U251 CNS): 406 nM | TGI (U251 CNS): > 100000 nM | GI50 (HT29 colon): 356 nM | TGI (HT29 colon): > 100000 nM | GI50 (MCF7 breast): 305 nM | TGI (MCF7 breast): > 100000 nM | GI50 (HCT-116 colon): 361 nM | TGI (HCT-116 colon): > 100000 nM | GI50 (HL-60(TB) leukemia): 277 nM | TGI (HL-60(TB) leukemia): 2560 nM | GI50 (DU-145 prostate): 469 nM | TGI (DU-145 prostate): > 100000 nM | GI50 (T-47D breast): 587 nM | TGI (T-47D breast): > 100000 nM | GI50 (NCI-H460 lung): 361 nM | TGI (NCI-H460 lung): > 100000 nM | GI50 (OVCAR-5 ovarian): 632 nM | TGI (OVCAR-5 ovarian): > 100000 nM | GI50 (HOP-92 NSCLC): 1130 nM | TGI (HOP-92 NSCLC): > 100000 nM | GI50 (HCT-15 colon): 303 nM | TGI (HCT-15 colon): > 100000 nM | GI50 (SF-295 CNS): 285 nM | TGI (SF-295 CNS): 1460 nM | GI50 (HOP-62 NSCLC): 474 nM | TGI (HOP-62 NSCLC): > 100000 nM

— PubChem BioAssay (NCI)
